Test results published in PMC6131351, “Pharmacological difference between degrader and inhibitor against oncogenic BCR-ABL kinase” (Scientific Reports, 2018).

What was measured:
Jurkat cells = test: WST cell growth inhibition, Jurkat (BCR-ABL negative); format: cell-based; conditions: Homo sapiens, 48 h, WST assay, means ± SD (n = 3)
BCR-ABL protein = molecular target: T1, BCR-ABL protein (Homo sapiens, UniProt P00519+P11274); test: Protein knockdown by western blot in K562 cells; format: cell-based; conditions: 6 h
T1 construct: examined for their activity to degrade BCR-ABL in K562 cells for 6 h; BCR (fusion partner, P11274, N-terminal part); endogenous in cells; host or cells: K562
T1 sequence (P11274+P00519 fused): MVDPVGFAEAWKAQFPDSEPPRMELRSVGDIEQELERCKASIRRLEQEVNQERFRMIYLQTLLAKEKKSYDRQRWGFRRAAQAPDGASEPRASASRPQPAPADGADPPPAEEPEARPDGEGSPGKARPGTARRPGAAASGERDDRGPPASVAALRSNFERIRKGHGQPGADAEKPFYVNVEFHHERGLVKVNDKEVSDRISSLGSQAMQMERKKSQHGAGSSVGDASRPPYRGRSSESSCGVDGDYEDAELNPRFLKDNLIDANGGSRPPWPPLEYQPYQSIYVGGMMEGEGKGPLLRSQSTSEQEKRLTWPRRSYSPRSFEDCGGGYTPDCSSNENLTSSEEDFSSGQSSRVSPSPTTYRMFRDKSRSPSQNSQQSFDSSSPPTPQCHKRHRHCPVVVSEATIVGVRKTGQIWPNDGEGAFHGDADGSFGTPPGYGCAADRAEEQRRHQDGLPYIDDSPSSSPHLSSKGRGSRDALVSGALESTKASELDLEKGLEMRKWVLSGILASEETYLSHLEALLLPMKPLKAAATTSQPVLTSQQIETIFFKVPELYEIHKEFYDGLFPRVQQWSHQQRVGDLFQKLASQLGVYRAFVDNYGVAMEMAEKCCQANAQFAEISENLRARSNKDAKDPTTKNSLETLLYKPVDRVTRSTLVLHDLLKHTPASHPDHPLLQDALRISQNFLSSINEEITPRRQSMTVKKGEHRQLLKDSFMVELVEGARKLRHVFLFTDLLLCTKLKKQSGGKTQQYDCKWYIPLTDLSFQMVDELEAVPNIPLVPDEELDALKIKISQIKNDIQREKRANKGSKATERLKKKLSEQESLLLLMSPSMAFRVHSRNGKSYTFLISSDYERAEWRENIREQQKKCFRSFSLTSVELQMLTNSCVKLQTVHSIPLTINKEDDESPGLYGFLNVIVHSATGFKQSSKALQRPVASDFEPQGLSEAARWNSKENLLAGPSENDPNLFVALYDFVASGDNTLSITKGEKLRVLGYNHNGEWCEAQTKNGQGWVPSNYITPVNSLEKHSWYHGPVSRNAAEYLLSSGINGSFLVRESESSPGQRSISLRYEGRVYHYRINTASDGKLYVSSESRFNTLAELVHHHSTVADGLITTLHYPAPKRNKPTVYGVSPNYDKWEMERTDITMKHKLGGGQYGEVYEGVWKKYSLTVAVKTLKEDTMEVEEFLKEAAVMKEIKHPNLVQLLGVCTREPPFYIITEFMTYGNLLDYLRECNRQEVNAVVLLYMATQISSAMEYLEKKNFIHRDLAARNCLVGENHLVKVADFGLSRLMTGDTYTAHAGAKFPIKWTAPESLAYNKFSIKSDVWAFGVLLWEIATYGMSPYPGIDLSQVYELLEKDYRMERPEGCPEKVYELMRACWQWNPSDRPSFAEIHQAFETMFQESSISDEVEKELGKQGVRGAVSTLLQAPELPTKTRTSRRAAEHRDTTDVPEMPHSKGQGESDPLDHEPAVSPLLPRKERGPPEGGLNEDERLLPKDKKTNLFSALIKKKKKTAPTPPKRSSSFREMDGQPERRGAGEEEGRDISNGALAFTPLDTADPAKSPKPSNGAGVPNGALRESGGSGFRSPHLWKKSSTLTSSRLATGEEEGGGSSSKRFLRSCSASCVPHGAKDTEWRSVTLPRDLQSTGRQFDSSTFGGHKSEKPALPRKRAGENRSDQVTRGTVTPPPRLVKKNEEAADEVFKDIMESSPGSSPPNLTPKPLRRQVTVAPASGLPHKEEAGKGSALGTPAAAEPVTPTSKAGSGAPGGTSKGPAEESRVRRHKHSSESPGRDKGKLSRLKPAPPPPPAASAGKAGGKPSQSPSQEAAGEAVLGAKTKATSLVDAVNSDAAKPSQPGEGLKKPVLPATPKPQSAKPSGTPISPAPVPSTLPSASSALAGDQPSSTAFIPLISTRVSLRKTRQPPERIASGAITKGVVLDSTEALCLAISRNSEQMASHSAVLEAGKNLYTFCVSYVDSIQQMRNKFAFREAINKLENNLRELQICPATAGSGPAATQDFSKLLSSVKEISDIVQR
Method: Cells were collected and lysed in a lysis buffer (0.5% Triton X-100, 0.01 M Tris-HCl (pH 7.5), 0.15 M NaCl, Complete Mini protease inhibitor cocktail (Roche Applied Science, Indianapolis, IL, USA) and PhosStop phosphatase inhibitor cocktail (Roche Applied Science)). Protein concentrations were measured by the BCA method (Thermo Fisher Scientific) and an equal amount of protein lysate was separated by SDS-PAGE, transferred to polyvinylidene difluoride membranes (Merck Millipore) and analyzed by western blot using an appropriate antibody. The immunoreactive proteins were visualized using Clarity Western ECL substrate (Bio-Rad, Hercules, CA, USA) and their light emission was quantified with a LAS-3000 lumino-image analyzer (Fuji, Tokyo, Japan).

SMILES | IC50 (Jurkat cells) | BCR-ABL, cIAP1 and XIAP protein levels (BCR-ABL protein) | knockdown activity against the BCR-ABL protein (BCR-ABL protein; 1-300 nM)
CN[C@@H](C)C(=O)N[C@H](C(=O)N1CCC[C@H]1c1nc(C(=O)c2cccc(OCCOCCOCCOCC(=O)N3CCN(c4cc(Nc5ncc(C(=O)Nc6c(C)cccc6Cl)s5)nc(C)n4)CC3)c2)cs1)C1CCCCC1 [DAS-IAP] | 2870 ± 293 nM | reduced | effective knockdown activity
CN[C@@H](C)C(=O)N(C)[C@H](C(=O)N1CCC[C@H]1c1nc(C(=O)c2cccc(OCCOCCOCCOCC(=O)N3CCN(c4cc(Nc5ncc(C(=O)Nc6c(C)cccc6Cl)s5)nc(C)n4)CC3)c2)cs1)C1CCCCC1 [DAS-meIAP] | 2440 ± 310 nM | did not reduce | 
